Laboratory results as given in patent publication US11584727B2, “2-thioxothiazolidin-4-one derivatives active as transthyretin ligands and uses thereof” (BSIM Therapeutics, S.A., priority 2014, dated 2023).
Read-outs that look alike come from different tables or passages of the source.

Tests used:
[1] = target: T1, wild type transthyretin (WT-TTR) (Homo sapiens, UniProt P02766); experiment: WT-TTR amyloid fibril formation assay (turbidimetry, acid-induced); assay type: biochemical; conditions: pH 4.4, 72 hours; for Fibril Formation (%): WT-TTR 3.6 μM, 1:1 TTR-compound stoichiometry, 37° C., normalized to no-compound control (100%); for IC50: WT-TTR fixed at 3.6 μM, ten compound concentrations; for inhibitory activity against TTR amyloid fibril formation compared with reference compounds (in words): TTR 3.6 μM
T1 construct: made in house; host or cells: E. coli BL21 (DE3), pET23a plasmid
Experimental: (§1) The first set of evaluations is based on a fast, stagnant fibril formation assay that is used for the early screening of compounds, be they virtual screening hits or newly synthesized analogues. In this assay, a solution of the compound under test at 1.8, 3.6 or 7.2 μM is added to a solution of TTR at 3.6 μM, so that there is enough compound to bind to either one or both of TTR's binding sites. The pH of the resulting solution is then lowered to 4.4 to promote amyloidogenesis. The process of amyloid fibril formation over time is assessed by turbidimetry measurements at three different wavelengths (405, 450 and 490 nm, or at 550, 600 and 650 nm when the compound absorbs light at the previous wavelengths), using a spectrophotometer endowed with a BioTek microplate reader. The extent of fibril formation of each mixture is determined by normalizing a sample with the protein (TTR), in absence of compounds, which, at the end of 72 hours, represents 100% of amyloid fibril formation. In each experiment, each compound concentration is tested in triplicate. For each compound concentration and incubation time, the arithmetic mean of the triplicate experiments is calculated, as well as the arithmetic mean of the three measured wavelengths. High activity can be defined as a percentage of fibril formation below 10% at compound concentration 7.2 μM (TTR:compound stoichiometry 1:2) and below 40% at 3.6 μM (TTR:compound stoichiometry 1:1).
The in vitro activity of the compounds was assessed through a biochemical assay based on turbidimetry measurements, in which fibril formation is induced by acidification of the solution to pH 4.4 after incubation with the hit compound to be tested. The amount of amyloid fibrils formed is then monitored throughout 72 hours. Further details on this assay are provided in the “Evaluation of amyloid inhibition in vitro” subsection in “Materials and Methods”.
Experimental evaluation of the in vitro activity of virtual screening hits against amyloid fibril formation by TTR was carried out using a biochemical assay based on turbidimetry measurements. In this assay, fibril formation is induced by acidification of the solution to pH 4.4 after incubation with the hit compound to be tested. The amount of amyloid fibrils formed is monitored over 72 hours. Further details on the assay are provided in the “Evaluation of amyloid inhibition in vitro” subsection below.
(§2) Purchased virtual screening hits and all synthesized (optimization) derivatives were dissolved in DMSO to a final concentration of 10.8 mM to provide a primary stock solution. Several secondary stock solutions were prepared in DMSO by dilution of the primary stock solution and the concentrations were chosen depending on the effectiveness of the compound in inhibiting the TTR amyloid fibril formation.
(§3) The fibril formation assay was adapted to run in a high-throughput screening mode. For this purpose, 96-well microplates were used with a final assay volume of 100 μL.
(§4) One microLitre (μL) of different compound secondary stock solutions was added to 50 μL of a 7.2 μM wild type TTR (WT-TTR) or Val122Ile-TTR (V122I-TTR) solutions in 10 miliMolar (mM) sodium phosphate buffer, 100 mM KCl and 1 mM EDTA, pH 7.2, previously dialyzed against the same buffer solution. After 30 minutes of incubation at room temperature, the pH of the mixture was lowered to 4.4 with 49 μL of 200 mM acetate buffer, 100 mM KCl and 1 mM EDTA, pH 4.3.
(§5) The mixtures were incubated at 37° C. during 72 hours. Turbidity at 405 nm, 450 nm and 490 nm (or at 550, 600 and 650 nm when the test compound absorbs light at the previous wavelengths) was measured over time (0, 17, 24, 41, 48, 65 and 72 hours) using a BioTek Microplate Spectrophotometer to evaluate the extent of fibril formation. Immediately before the turbidity measurements, the mixtures were gently shacked during 1 minute to homogenize well and not damage the formed amyloid aggregates and fibrils.

[2] = target: Val122Ile transthyretin (V122I-TTR) (Homo sapiens, UniProt P02766, V142I); experiment: V122I-TTR amyloid fibril formation assay (turbidimetry, acid-induced); assay type: biochemical; conditions: pH 4.4, 72 hours; for Fibril Formation (%): V122I-TTR 3.6 μM, 37° C.; for IC50: V122I-TTR fixed at 3.6 μM, ten compound concentrations
Experimental: as §1, §2, §3, §4
as §5, with “fibrils. The final turbidity was calculated as an average of the three wavelengths measured.” for “fibrils.”
In addition, control samples containing TTR with no inhibitor and 1% DMSO, as well as inhibitor in absence of TTR were tested and analyzed.
The extent of amyloid fibril formation data was normalized to TTR in the absence of inhibitor, assigned to be 100% fibril formation (or 0% amyloid inhibition) at the end of the experiment.
The extent of amyloid fibril formation throughout 72 hours was determined as described in the “Evaluation of amyloid inhibition in vitro” subsection above.
IC50 values were calculated from the inhibition curves obtained by fitting the values by a nonlinear curve method using the OriginPro7 (OriginLab Corporation, USA).

[3] = read-out: IC50 (μM), concentration inhibiting WT-TTR amyloid fibril formation by 50%

Compound | Fibril Formation (%) [1] | Fibril Formation (%) [2] | IC50 [2] | IC50 [1] | melting point | IC50 [1, 3] | inhibitory activity against TTR amyloid fibril formation compared with reference compounds (in words) [1] | IC50 ([2]; read-out: IC50 (μM), concentration inhibiting V122I-TTR amyloid fibril formation by 50%)
Oc1c(Cl)cc(-c2cc(Cl)c(O)c(Cl)c2)cc1Cl [2OH- PCB80, 2,6-dichloro-4-(3,5-dichloro-4-oxidophenyl)benzen-1-olate, reference compound] | 20% | 24% | 1.45 µM |  |  | 1.59 ± 0.27 µM |  | 
COc1cc(/C=C2/SC(=S)N(CC(=O)O)C2=O)cc(Cl)c1O [AT50-A00 (E), (E)-3-hydroxycarbonylmethyl-5-(3′-chloro-4′-hydroxy-5′-methoxyphenylmethylidene)-2-thioxothiazolidin-4-one] | 26% | 45% | 3.06 µM | 1.73 ± 0.06 µM |  |  |  | 
O=C(O)CN1C(=O)/C(=C/c2cc(O)c(O)c(Cl)c2)SC1=S [AT50-A01, (Z)-5-(3′-chloro-4′,5′-dihydroxyphenylmethylidene)-3-hydroxycarbonylmethyl-2-thioxothiazolidin-4-one] | 12% | 29% | 2.34 µM | 1.45 ± 0.04 µM | 241 to 242 °C |  |  | 
O=C(O)CN1C(=O)/C(=C/c2ccc(O)cc2)SC1=S [AT50-A11, (Z)-3-hydroxycarbonylmethyl-5-(4′-hydroxyphenylmethylidene)-2-thioxothiazolidin-4-one] | 35% |  |  |  | 213 to 214 °C |  |  | 
Cc1cc(/C=C2\SC(=S)N(CC(=O)O)C2=O)cc(O)c1O [AT50-A35, (Z)-5-(3′,4′-dihydroxy-5′-methylphenylmethylidene)-3-hydroxycarbonylmethyl-2-thioxothiazolidin-4-one] | 21% |  |  | 2.23 µM | 238 to 239 °C |  |  | 
COc1cc(/C=C2\SC(=S)N(CC(=O)O)C2=O)cc(C)c1O [AT50-A47, (Z)-3-hydroxycarbonylmethyl-5-(4′-hydroxy-3′-methoxy-5′-methylphenylmethylidene)-2-thioxothiazolidin-4-one] | 21% |  |  | 2.05 µM | 238 to 239 °C |  |  | 
O=C(O)CN1C(=O)/C(=C/c2cc(Br)c(O)c(Br)c2)SC1=S [AT50-A50, (Z)-5-(3′,5′-dibromo-4′-hydroxyphenylmethylidene)-3-hydroxycarbonylmethyl-2-thioxothiazolidin-4-one] | 8% |  |  | 0.9 µM |  |  |  | 
(Z)-5-(3′,5′-dichloro-4′-hydroxyphenylmethylidene)-3-hydroxycarbonylmethyl-2,4-dioxothiazolidine [AT50-A49] | 4% | 12% |  |  |  | 0.89 ± 0.15 µM |  | 1.32 µM
(Z)-5-(3′-bromo-4′-hydroxy-5′-iodophenylmethylidene)-3-hydroxycarbonylmethyl-2,4-dioxothiazolidine [AT50-A51] | 5% |  |  |  |  | 1.07 ± 0.42 µM |  | 

Further lines, with some results ahead:

Fibril Formation (%) [1] | Fibril Formation (%) [2] | IC50 [2] | IC50 [1] | melting point | Compound | IC50 [1, 3] | inhibitory activity against TTR amyloid fibril formation compared with reference compounds (in words) [1] | IC50 ([2]; read-out: IC50 (μM), concentration inhibiting V122I-TTR amyloid fibril formation by 50%)
28% | 42% |  |  |  | NC(Cc1cc(I)c(Oc2cc(I)c(O)c(I)c2)c(I)c1)C(=O)O (stereo in doubt) [Thyroxine, (2S)-2-amino-3-[4-(4-hydroxy-3,5-diiodophenoxy)-3,5-diiodophenyl]propanoic acid, reference compound] |  |  | 
35% |  |  | 2.38 ± 0.17 µM |  | COc1cccc(/C=C2\SC(=S)N(C(C)C(=O)O)C2=O)c1 (centres unmarked) [AT50-B00, (Z)-3-(1′-hydroxycarbonylethyl)-5-(3′-methoxyphenylmethylidene)-2-thioxothiazolidin-4-one] |  | superior to that of reference compounds Tafamidis | 
10% | 20% | 1.48 µM | 0.95 ± 0.45 µM |  | COc1cc(/C=C2\SC(=S)N([C@H](CC(C)C)C(=O)O)C2=O)cc(OC)c1O [AT50-B01, (Z)-(1′S)-5-(4′-hydroxy-3′,5′-dimethoxyphenylmethylidene)-3-(1′-hydroxycarbonylisopentyl)-2-thioxothiazolidin-4-one] |  |  | 
26% |  |  | 2.05 ± 0.04 µM |  | O=C(O)CC[C@@H](C(=O)O)N1C(=O)/C(=C/c2c(Cl)cccc2Cl)SC1=S [AT50-C00, (Z)-(1′S)-5-(2′,6′-dichlorophenylmethylidene)-3-(1′,3′-di(hydroxycarbonyl)propyl)-2-thioxothiazolidin-4-one] |  | superior to that of reference compounds Tafamidis | 
13% | 39% | 2.66 µM | 1.38 ± 0.3 µM |  | O=C(O)CC[C@@H](C(=O)O)N1C(=O)/C(=C/c2ccc(O)c(Br)c2)SC1=S [AT50-C01, (Z)-(1′S)-5-(3′-bromo-4′-hydroxyphenylmethylidene)-3-(1′,3′-di(hydroxycarbonyl)propyl)-2-thioxothiazolidin-4-one] |  |  | 
18% |  |  | 1.79 ± 0.13 µM |  | Cc1cc(/C=C2\SC(=S)N([C@@H](CCC(=O)O)C(=O)O)C2=O)cc(Cl)c1O [AT50-C02, (Z)-(1′S)-5-(3′-chloro-4′-hydroxy-5′-methylphenylmethylidene)-3-(1′,3′-di(hydroxycarbonyl)propyl)-2-thioxothiazolidin-4-one] |  |  | 
30% |  |  |  | 194 to 196 °C | COc1cc(/C=C2\SC(=S)N(CCC(=O)O)C2=O)cc(C)c1O [AT50-C18, (Z)-5-(4′-hydroxy-3′-methoxy-5′-methylphenylmethylidene)-3-(2′-hydroxycarbonylethyl)-2-thioxothiazolidin-4-one] |  |  | 
33% |  |  |  | 243 to 245 °C | O=C(O)CCN1C(=O)/C(=C/c2cc(O)c(O)c(Cl)c2)SC1=S [AT50-C19, (Z)-5-(3′-chloro-4′,5′-dihydroxyphenylmethylidene)-3-(2′-hydroxycarbonylethyl)-2-thioxothiazolidin-4-one] |  |  | 
39% |  |  |  | 221 to 222 °C | Cc1cc(/C=C2\SC(=S)N(CCC(=O)O)C2=O)cc(O)c1O [AT50-C20, (Z)-5-(3′,4′-dihydroxy-5′-methylphenylmethylidene)-3-(2′-hydroxycarbonylethyl)-2-thioxothiazolidin-4-one] |  |  | 
